Experimental data from patent publication US11866431B2, “Bicyclic compounds” (Vivace Therapeutics, Inc., priority 2018, dated 2024).

System: 8XTBD luciferase reporter (YAP reporter) in HEK293T cells
Assay: YAP Reporter Assay
Type: cell-based
Conditions: Homo sapiens, HEK-293T, 24 h, read-out: Firefly Luciferase IC50 (μM)
How it was run: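 Dual-luciferase read-out after 24 h compound exposure at 37° C, 5% CO2; IC50 and maximum inhibition given separately for 8XTBD-firefly and TK-renilla signals. Stable HEK293T reporter cells, 3×10^3/well, received 10-point 1:3 series starting 3 μM final, in quadruplicate.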

Row | SMILES | IC50 [µM]
1 | C[C@H](NC(=O)c1ccc2c(-c3ccc(C(F)(F)F)cc3)cccc2c1)C1CN(CCO)C1 [Compound 140, N-[(1S)-1-[1-(2-hydroxyethyl)azetidin-3-yl]ethyl]-5-[4-(trifluoromethyl)phenyl]naphthalene-2-carboxamide] | 0.1 to 1

Same assay, conditions: Homo sapiens, HEK-293T; HEK293T cells stably transfected with 8XTBD luciferase reporter and pRLTK; 24-hr incubation; top concentration 3 μM; read-out: Firefly Luciferase IC50

Row | SMILES | IC50 [µM]
2 | COc1cc(-c2ccc(C(F)(F)F)cc2)c2ncc(C(=O)N[C@H](C)CO)cc2c1 [Compound 98, N-[(1R)-2-hydroxy-1-methyl-ethyl]-6-methoxy-8-[4-(trifluoromethyl)phenyl]quinoline-3-carboxamide] | < 0.1
3 | COC(=O)/C=C/CCNC(=O)c1ccc2c(-c3ccc(C(F)(F)F)cc3)cccc2c1 [Compound 230, methyl (E)-5-[[5-[4-(trifluoromethyl)phenyl]naphthalene-2-carbonyl]amino]pent-2-enoate] | 0.1 to 1
4 | CC(C)NC(=O)c1ccc2c(-c3ccc(C(F)(F)F)cc3)ccc(NC(=O)OC(C)(C)C)c2c1 [Compound 12, Tert-Butyl (7-(isopropylcarbamoyl)-4-(4-(trifluoromethyl)phenyl)naphthalen-1-yl)carbamate] | 0.1 to 1
5 | C[C@@H](NC(=O)c1cnc2c(-c3ccc(C(F)(F)F)cc3)cccc2c1)C1CN(CC(F)F)C1 [Compound 317, (R)—N-(1-(1-(2,2-difluoroethyl)azetidin-3-yl)ethyl)-8-(4-(trifluoromethyl)phenyl)quinoline-3-carboxamide] | 0.1 to 1
6 | NC(=O)/C=C/CCCNC(=O)c1ccc2c(-c3ccc(C(F)(F)F)cc3)cccc2c1 [Compound 202, N-[(E)-6-amino-6-oxo-hex-4-enyl]-5-[4-(trifluoromethyl)phenyl]naphthalene-2-carboxamide] | 0.1 to 1
7 | CS(=O)(=O)NC(=O)c1ccc2c(-c3ccc(C(F)(F)F)cc3)cccc2c1 [Compound 2, N-(methylsulfonyl)-5-(4-(trifluoromethyl)phenyl)-2-naphthamide] | < 0.1
8 | CN(C#N)CCNC(=O)c1ccc2c(-c3ccc(C(F)(F)F)cc3)cccc2c1 [Compound 125, N-(2-(N-methylcyanamido)ethyl)-5-(4-(trifluoromethyl)phenyl)-2-naphthamide] | < 0.1
9 | CC(C)NC(=O)c1ccc2c(-c3ccc(C(F)(F)F)cc3)cc3ocnc3c2c1 [Compound 71, N-isopropyl-5-(4-(trifluoromethyl)phenyl)naphtho[1,2-d]oxazole-8-carboxamide] | < 0.1
10 | O=C(NCc1ncns1)c1ccc2c(-c3ccc(C(F)(F)F)cc3)cccc2c1 [Compound 220, N-((1,2,4-thiadiazol-5-yl)methyl)-5-(4-(trifluoromethyl)phenyl)-2-naphthamide] | < 0.1
11 | C[C@@H](NC(=O)c1cnc2c(-c3ccc(C(F)(F)F)cc3)cccc2c1)C1(O)CNC1 [Compound 141, (R)—N-(1-(3-hydroxyazetidin-3-yl)ethyl)-8-(4-(trifluoromethyl)phenyl)quinoline-3-carboxamide] | 1 to 3
12 | C[C@H](NC(=O)c1ccc2c(-c3ccc(C(F)(F)F)cc3)cccc2c1)c1cccc2nc[nH]c12 [Compound 174, N-[(1S)-1-(3H-benzimidazol-4-yl)ethyl]-5-[4-(trifluoromethyl)phenyl]naphthalene-2-carboxamide] | < 0.1
13 | C[C@H](NC(=O)c1ccc2c(-c3ccc(C(F)(F)F)cc3)cccc2c1)c1cccc2cn[nH]c12 [Compound 183, N-[(1S)-1-(1H-indazol-7-yl)ethyl]-5-[4-(trifluoromethyl)phenyl]naphthalene-2-carboxamide] | 1 to 3
14 | CS(=O)(=O)NC(=O)c1cnc2c(-c3ccc(C(F)(F)F)cc3)cc(OC(F)(F)F)cc2c1 [Compound 123, N-(methylsulfonyl)-6-(trifluoromethoxy)-8-(4-(trifluoromethyl)phenyl)quinoline-3-carboxamide] | 1 to 3
15 | O=C(NC(CCO)CCO)c1ccc2c(-c3ccc(C(F)(F)F)cc3)cccc2c1 [Compound 161, N-(1,5-dihydroxypentan-3-yl)-5-(4-(trifluoromethyl)phenyl)-2-naphthamide] | 0.1 to 1
16 | O=C(O)c1cnc2c(-c3ccc(C(F)(F)F)cc3)cc(OC3CC3)cc2c1 [Compound 323, 6-cyclopropoxy-8-(4-(trifluoromethyl)phenyl)quinoline-3-carboxylic acid] | < 0.1
17 | CC(C)(NC(=O)c1ccc2c(-c3ccc(C(F)(F)F)cc3)cccc2c1)c1ccccn1 [Compound 262, N-(2-(pyridin-2-yl)propan-2-yl)-5-(4-(trifluoromethyl)phenyl)-2-naphthamide] | 0.1 to 1
18 | CC(=O)Nc1cc(-c2ccc(C(F)(F)F)cc2)c2ccc(C(=O)NC(C)C)cc2c1 [Compound 48, 7-acetamido-N-isopropyl-5-(4-(trifluoromethyl)phenyl)-2-naphthamide] | 0.1 to 1
19 | CC(C)NC(=O)c1ccc2c(-c3ccc(C(F)(F)F)cc3)cc3nncn3c2c1 [Compound 307, N-Isopropyl-5-(4-(trifluoromethyl)phenyl)-[1,2,4]triazolo[4,3-a]quinoline-8-carboxamide] | 0.1 to 1
20 | COC[C@@H](C)NC(=O)c1ccc2c(-c3ccc(C(F)(F)F)cc3)cccc2c1 [Compound 93, (R)—N-(1-methoxypropan-2-yl)-5-(4-(trifluoromethyl)phenyl)-2-naphthamide] | < 0.1

Row | SMILES | IC50 [µM]
21 | C[C@@H](NC(=O)c1ccc2c(-c3ccc(C(F)(F)F)cc3)cccc2c1)C(N)=O [Compound 258, (R)—N-(1-amino-1-oxopropan-2-yl)-5-(4-(trifluoromethyl)phenyl)-2-naphthamide] | 0.1 to 1
22 | C[C@H](NC(=O)c1ccc2c(-c3ccc(C(F)(F)F)cc3)cccc2c1)c1nnnn1C [Compound 280, (S)—N-(1-(1-methyl-1H-tetrazol-5-yl)ethyl)-5-(4-(trifluoromethyl)phenyl)-2-naphthamide] | 1 to 3
23 | Cc1cc(-c2ccc(C(F)(F)F)cc2)c2ccc(C(=O)NC(C)C)cc2c1 [Compound 41, N-isopropyl-7-methyl-5-(4-(trifluoromethyl)phenyl)-2-naphthamide] | < 0.1
24 | COc1cc(-c2ccc(C(F)(F)F)cc2)c2ncc(C(=O)NC(C)C)cc2c1 [Compound 97, N-isopropyl-6-methoxy-8-[4-(trifluoromethyl)phenyl]quinoline-3-carboxamide] | < 0.1
25 | O=C(O)c1ccc2c(-c3ccc(C(F)(F)F)cc3)cccc2n1 [Compound 333, 5-(4-(trifluoromethyl)phenyl)quinoline-2-carboxylic Acid] | 0.1 to 1
26 | C[C@H](CN)NC(=O)c1ccc2c(-c3ccc(C(F)(F)F)cc3)cccc2c1 [Compound 60, (R)—N-(1-aminopropan-2-yl)-5-(4-(trifluoromethyl)phenyl)-2-naphthamide] | < 0.1
27 | CC(C)NC(=O)c1ccc2c(-c3ccc(C(F)(F)F)cc3)cn(C)c(=O)c2c1 [Compound 26, N-isopropyl-2-methyl-1-oxo-4-(4-(trifluoromethyl)phenyl)-1,2-dihydroisoquinoline-7-carboxamide] | < 0.1
28 | CNCC(C)NC(=O)c1ccc2c(-c3ccc(C(F)(F)F)cc3)cccc2c1 (stereo not drawn) [Compound 92, N-(1-(methylamino)propan-2-yl)-5-(4-(trifluoromethyl)phenyl)-2-naphthamide] | 0.1 to 1
29 | O=C(NCCCCO)c1ccc2c(-c3ccc(C(F)(F)F)cc3)cccc2c1 [Compound 255, N-(4-hydroxybutyl)-5-(4-(trifluoromethyl)phenyl)-2-naphthamide] | 0.1 to 1
30 | C[C@@H](NC(=O)c1ccc2c(-c3ccc(C(F)(F)F)cc3)cccc2c1)c1nnnn1C [Compound 281, (R)—N-(1-(1-methyl-1H-tetrazol-5-yl)ethyl)-5-(4-(trifluoromethyl)phenyl)-2-naphthamide] | 0.1 to 1
31 | C[C@H](NC(=O)c1ccc2c(-c3ccc(C(F)(F)F)cc3)cccc2c1)C1(O)CNC1 [Compound 155, (S)—N-(1-(3-hydroxyazetidin-3-yl)ethyl)-5-(4-(trifluoromethyl)phenyl)-2-naphthamide] | 0.1 to 1
32 | NC(=O)c1nc(CNC(=O)c2ccc3c(-c4ccc(C(F)(F)F)cc4)cccc3c2)ns1 [Compound 184, 3-((5-(4-(Trifluoromethyl)phenyl)-2-naphthamido)methyl)-1,2,4-thiadiazole-5-carboxamide] | < 0.1
33 | CC(NC(=O)c1ccc2c(-c3ccc(C(F)(F)F)cc3)cccc2c1)c1nsc(C(N)=O)n1 (stereo not drawn) [Compound 201, 3-(1-(5-(4-(Trifluoromethyl)phenyl)-2-naphthamido)ethyl)-1,2,4-thiadiazole-5-carboxamide] | < 0.1
34 | CC(C)NC(=O)c1ccc2c(-c3ccc(C(F)(F)F)cc3)ccc(C(F)(F)F)c2c1 [Compound 87, N-isopropyl-8-(trifluoromethyl)-5-(4-(trifluoromethyl)phenyl)-2-naphthamide] | 0.1 to 1
35 | COC(=O)c1ccc2c(-c3ccc(C(F)(F)F)cc3)nccc2c1 [Compound 9, Methyl 1-[4-(trifluoromethyl)phenyl]isoquinoline-6-carboxylate] | 0.1 to 1
36 | C[C@@H](NC(=O)c1ccc2c(-c3ccc(C(F)(F)F)cc3)cccc2c1)c1cccc(N(C)C)n1 [Compound 286, (R)—N-(1-(6-(dimethylamino)pyridin-2-yl)ethyl)-5-(4-(trifluoromethyl)phenyl)-2-naphthamide] | < 0.1
37 | COC(=O)c1ccc2c(-c3ccc(C(F)(F)F)cc3)cncc2c1 [Compound 24, Methyl 4-[4-(trifluoromethyl)phenyl]isoquinoline-7-carboxylate] | < 0.1
38 | CN(C#N)CCCNC(=O)c1ccc2c(-c3ccc(C(F)(F)F)cc3)cccc2c1 [Compound 127, N-(3-(N-methylcyanamido)propyl)-5-(4-(trifluoromethyl)phenyl)-2-naphthamide] | 0.1 to 1
39 | O=C(NCCCCCO)c1ccc2c(-c3ccc(C(F)(F)F)cc3)cccc2c1 [Compound 238, N-(5-hydroxypentyl)-5-[4-(trifluoromethyl)phenyl]naphthalene-2-carboxamide] | 0.1 to 1
